Measurements published in patent US10702498B2 (priority 2015, dated 2020).
Entries after “also recorded” stand apart in the source; their conditions may differ. Where two headings read alike, the source gives them in different places.

Key:
[1] = biological target: humanDOR (Homo sapiens (Human), UniProt P41143); experiment: Receptor binding, [3H]diprenorphine
[2] = biological target: hKOR (Homo sapiens (Human), UniProt P41145); experiment: Receptor binding, [3H]diprenorphine
[3] = biological target: hMOR + Gqi5 (Homo sapiens (Human), UniProt P35372); experiment: IP accumulation assay; type: cell-based; conditions: % morphine
[4] = biological target: T1, μOR β-arrestin2 recruitment (Homo sapiens (Human), UniProt P35372); experiment: β-Arrestin2 recruitment without GRK2 co-expression (BRET); type: cell-based
[5] = biological target: MOR (Homo sapiens (Human), UniProt P35372); experiment: Functional annotation (MOR agonist / antagonist), method not stated
[6] = biological target: human μOR β-arrestin2 recruitment + GRK2 (Homo sapiens (Human), UniProt P35372); experiment: β-Arrestin2 recruitment with GRK2 co-expression (BRET); type: cell-based
[7] = biological target: T2, μOR (Homo sapiens (Human), UniProt P35372); experiment: cell-based; type: cell-based
T2 sequence (P35372 whole entry): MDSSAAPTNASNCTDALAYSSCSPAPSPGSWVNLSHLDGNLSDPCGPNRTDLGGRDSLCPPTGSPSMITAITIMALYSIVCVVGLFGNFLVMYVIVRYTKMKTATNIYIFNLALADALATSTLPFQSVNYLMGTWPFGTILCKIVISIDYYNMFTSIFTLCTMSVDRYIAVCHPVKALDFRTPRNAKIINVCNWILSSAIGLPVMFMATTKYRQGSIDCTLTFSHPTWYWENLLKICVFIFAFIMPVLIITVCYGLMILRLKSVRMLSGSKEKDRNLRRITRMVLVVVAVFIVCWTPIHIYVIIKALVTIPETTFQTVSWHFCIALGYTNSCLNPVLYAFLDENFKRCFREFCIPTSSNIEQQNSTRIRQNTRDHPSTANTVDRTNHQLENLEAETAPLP

[8] = test system: 316 other GPCRs; experiment: PRESTO-Tango GPCRome β-arrestin recruitment counter-screen; type: cell-based; conditions: 10 μM screen, hits re-tested in full dose-response
From the text: Potential positive receptor hits were defined as those that increase the relative luminescence value by two fold. […] A number of false positive hits were discounted by this approach.

[9] = biological target: T1, μOR β-arrestin2 recruitment; experiment: β-Arrestin recruitment, PathHunter enzyme complementation assay (DiscoveRx OPRM1 CHO-K1); type: cell-based
[10] = test system: C57BL/6J mice; experiment: Tail-flick assay; type: in vivo; conditions: mouse
[11] = test system: mice; experiment: Catalepsy bar test; conditions: mouse
[12] = test system: mice; experiment: Conditioned place preference; type: in vivo; conditions: mouse
Description: On day 1 (preconditioning day), mice were placed in the central chamber and allowed to explore freely for 30 minutes. Time spent in each compartment was used to estimate baseline chamber preferences and mice showing specific chamber bias more than 70% were not studied further. On days 2-9 (conditioning days) mice were injected with either vehicle or drug and paired with either the white mesh or the black rod chambers. All mice received vehicle on days 2, 4, 6, 8 and drug on days 3, 5, 7, 9. On day 10 (test day), mice were again placed in the central chamber as on day 1 and allowed to explore freely for 30 minutes. Time spent in each chamber was expressed as percentage preference.

[13] = biological target: δOR (Homo sapiens (Human), UniProt P41143); experiment: Gi/o Glosensor assay
[14] = biological target: T3, κOR (Homo sapiens (Human), UniProt P41145); experiment: Gi/o Glosensor assay (agonist and antagonist mode)
[15] = test system: C57BL/6J mice; experiment: Hot-plate analgesia assay; type: in vivo; conditions: mouse
[16] = test system: μOR Gi/o versus β-arrestin signaling; experiment: Ligand bias calculation (operational model)
[17] = test system: mice; experiment: Open field locomotor response; conditions: mouse
[18] = test system: mice; experiment: Formalin injection assay; type: in vivo; conditions: mouse
[19] = biological target: T2, μOR; experiment: Calcium release (FLIPR); type: cell-based
Description: Calcium release was measured using a FLIPR^TETRA fluorescence imaging plate reader (Molecular Devices). Calcium release experiments were run in parallel to Gi/o Glosensor experiments with the same HEKT cells transfected with μOR, except cells for FLIPR were plated in poly-lysine coated 384-well black clear bottom cell culture plates. […] Dye was incubated for 1 hour at 37° C. Afterwards, cells were equilibrated to room temperature, and fluorescence in each well was read for the initial 10 seconds to establish a baseline. Afterwards, 10 μL of drug (3×) was added per well and the maximum-fold increase in fluorescence was determined as fold-over-baseline. Drug solutions used for the FLIPR assay were exactly the same as used for Gi/o Glosensor experiments. To activate endogenous Gq-coupled receptors as a positive control for calcium release, TFLLR-NH2 (10 μM, PAR-1 selective agonist) was used.

[20] = biological target: T2, μOR; experiment: Receptor internalization (PathHunter GPCR internalization, U2OS cells); type: cell-based
[21] = Pharmacokinetics: serum and brain concentrations; type: in vivo; conditions: mouse
Description: Studies were performed by the Preclinical Therapeutics Core and the Drug Studies Unit at the University of California San Francisco. […] All studies were performed with approved mouse protocols from the institutional animal care and use committees.

[22] = test system: mice; experiment: Accumulated fecal boli quantification (constipation); conditions: mouse
[23] = test system: Oprm1−/− and wild-type C57Bl/6J mice; experiment: Hot-plate: affective/reflexive subcategorization and μOR knockout mice; type: in vivo, mouse
[24] = biological target: nociceptin receptor (Homo sapiens (Human), UniProt P41146); experiment: Gi/o Glosensor assay
[25] = biological target: T2, μOR; experiment: BRET-based cAMP accumulation assay (Gi/o signaling, SAR of PZM21-29); type: cell-based
[26] = test system: mice; experiment: Whole body plethysmography (respiration); conditions: mouse; equianalgesic doses PZM21 40 mg/kg, TRV130 […], morphine 10 mg/kg
[27] = biological target: T2, μOR; experiment: biochemical; type: binding
[28] = biological target: T2, μOR; conditions: no Ki given
[29] = biological target: T3, κOR; type: binding; conditions: no Ki given

Sequence of humanDOR (P41143 whole entry): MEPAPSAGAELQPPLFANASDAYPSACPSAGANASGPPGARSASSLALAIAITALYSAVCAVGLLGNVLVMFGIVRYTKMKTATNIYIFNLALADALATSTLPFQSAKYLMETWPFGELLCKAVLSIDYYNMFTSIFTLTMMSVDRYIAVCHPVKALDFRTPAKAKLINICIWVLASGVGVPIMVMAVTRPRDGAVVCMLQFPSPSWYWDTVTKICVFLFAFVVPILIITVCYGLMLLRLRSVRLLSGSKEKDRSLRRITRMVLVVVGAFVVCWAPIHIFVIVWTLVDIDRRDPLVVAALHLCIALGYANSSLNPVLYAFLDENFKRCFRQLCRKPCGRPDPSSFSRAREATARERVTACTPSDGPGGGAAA
Sequence of hKOR (P41145 whole entry): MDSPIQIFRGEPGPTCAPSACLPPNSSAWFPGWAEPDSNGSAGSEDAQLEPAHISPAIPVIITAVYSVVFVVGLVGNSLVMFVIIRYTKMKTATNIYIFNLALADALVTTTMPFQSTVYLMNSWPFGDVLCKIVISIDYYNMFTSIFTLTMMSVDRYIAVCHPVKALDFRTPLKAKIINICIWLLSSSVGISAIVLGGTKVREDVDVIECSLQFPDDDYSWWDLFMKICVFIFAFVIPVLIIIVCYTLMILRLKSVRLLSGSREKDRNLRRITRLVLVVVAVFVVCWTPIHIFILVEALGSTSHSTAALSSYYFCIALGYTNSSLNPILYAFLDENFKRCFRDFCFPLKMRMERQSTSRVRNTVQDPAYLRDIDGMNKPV

SMILES: C[C@H](Cc1ccsc1)NC(=O)NC[C@H](Cc1ccc(O)cc1)N(C)C (stereo in doubt) [BD 122LR]
- Ki [1]: 88 ± 16 nM
- Ki ([1]; read-out: binding affinity Ki [nM] hDOR): 88 nM
- Ki ([2]; binding affinity Ki [nM] hKOR): 190 nM
- Ki ([2]; hKOR [3H]dyprenorphine Ki): 190 ± 23 nM
- hMOR + Gqi5 IP accumulation assay efficacy a [3]: a: 17%

SMILES: Cc1cc(O)cc(C)c1C[C@@H](CNC(=O)N[C@H](C)Cc1ccsc1)N(C)C [BD 131LR, 1-((S)-2-(dimethylamino)-3-(4-hydroxy-2,6-dimethylphenyl)propyl)-3-((R)-1-(thiophen-3-yl)propan-2-yl)urea]
- hMOR + Gqi5 IP accumulation assay efficacy a @ 10 μM ([3]; @ 10 μM): @ 10 μM a: 10%

SMILES: CN(C)[C@H](CNC(=O)NCCc1ccsc1)Cc1ccc(O)cc1 [DD 16, (S)-1-(2-(dimethylamino)-3-(4-hydroxyphenyl)propyl)-3-(2-(thiophen-3-yl)ethyl)urea]
- Arrestin pEC50 [4]: 6.387
- EC50 ([5]; read-out: MOR agonist (potency printed under structure)): 58 nM
- Arrestin + GRK2 pEC50 ([6]; GRK2 co-expressed): 6.843
- Gi/o pEC50 [7]: 8.122

SMILES: Cc1cc(O)cc(C)c1C[C@@H](CNC(=O)NCCc1ccsc1)N(C)C [DD 34L, (S)-1-(2-(dimethylamino)-3-(4-hydroxy-2,6-dimethylphenyl)propyl)-3-(2-(thiophen-3-yl)ethyl)urea]
- functional mode [5]: DD 34L (ANTAGONIST) [drawing 446]
- hMOR + Gqi5 IP accumulation assay efficacy a [3]: a: <5%

SMILES: Cc1cc(O)cc(C)c1C[C@@H](CNC(=O)NCCN1C(=O)C=CC1=O)N(C)C [DD 144, (S)-1-(2-(dimethylamino)-3-(4-hydroxy-2,6-dimethylphenyl)propyl)-3-(2-(2,5-dioxo-2,5-dihydro-1H-pyrrol-1-yl)ethyl)urea]
- functional mode [5]: DD 144 (ANTAGONIST, Covalent) [drawing 452]

SMILES: C[C@@H](Cc1ccsc1)NC(=O)NC[C@H](Cc1ccc(O)cc1)N(C)C [PZM21, 1-[(S)-2-(Dimethylamino)-3-(4-hydroxyphenyl)propyl]-3-((S)-1-(thiophen-3-yl)propan-2-yl)urea]
- agonism against 316 other GPCRs [8]: no potent activity was confirmed with a full dose-response experiment
- β-arrestin2 recruitment in PathHunter assay [9]: undetectable β-arrestin2 recruitment; also recorded: minimal recruitment of β-arrestin2; also recorded: no detectable 3-arrestin2 recruitment
- tail-flick analgesia [10]: no activity in a tail flick assay; also recorded: no analgesic effect
- cataleptic effect [11]: does not induce cataleptic behavior; also recorded: does not reflect a cataleptic effect
- conditioned place preference [12]: does not induce a conditioned place preference response
- Emax ([13]; read-out: Gi/o (Glosensor) Emax (%) δOR): 78%
- weaker δOR agonist than μOR agonist ([13]; selectivity): 500 fold
- activity at KOR (antagonist mode, words) [14]: antagonist at KOR
- κOR agonist activity [14]: no detectable KOR or nociceptin receptor agonist activity; also recorded: lack of agonist activity
- hot-plate analgesia ([15]; s.c.): dose-dependent analgesia
- hot-plate percent maximal possible effect (% MPE) ([15]; 15 minutes after the highest dose tested): 87%
- signaling bias [16]: undistinguishable from TRV130; also recorded: substantially exceeded that of herkinorin
- Ki [1]: 470 ± 98 nM
- open field locomotion [17]: does not induce open field locomotion; also recorded: no apparent effect on locomotion versus vehicle
- formalin injection nociception [18]: active in a formalin injection nociception assay
- β-arrestin2 recruitment in the absence of GRK2 [4]: no β-arrestin2 recruitment
- calcium release [19]: no activity was observed in a calcium release assay
- μOR internalization [20]: minimal level of μOR internalization compared to DAMGO and morphine
- Ki ([2]; hKOR [3H]dyprenorphine Ki): 33 ± 5.6 nM
- blood brain barrier penetration [21]: substantial fraction of PZM21 crosses the blood brain barrier
- constipation effect / defecation [22]: reduced constipatory effects as compared to morphine; also recorded: substantially less than morphine
- analgesia in μOR knockout mice ([23]; hot-plate): genetic knockout of the μOR completely ablates the observed analgesic response
- affective versus reflexive component of pain ([23]; mouse hot-plate): only modulates the affective component of pain; also recorded: solely confers analgesia to the affective component of pain
- arrestin recruitment with over-expressed GRK2 [6]: weak arrestin recruitment efficacy compared to DAMGO and even to morphine; also recorded: we observe arrestin recruitment
- nociceptin receptor agonist activity [24]: no detectable KOR or nociceptin receptor agonist activity
- hMOR + Gqi5 IP accumulation assay efficacy a [3]: a: 73%
- Gi/o activation / μOR agonist activity [7]: robust μOR agonist activity
- effect on cAMP levels with pertussis toxin [7]: eliminated by pertussis toxin

SMILES: CN(C)[C@H](CNC(=O)NCCc1cn(CCSSCCN=[N+]=[N-])nn1)Cc1ccc(O)cc1 [PZM29, (S)-1-(2-(1-(2-((2-Azidoethyl)disulfanyl)ethyl)-1H-1,2,3-triazol-4-yl)ethyl)-3-(2-(dimethylamino)-3-(4-hydroxyphenyl)propyl)urea×CF3COOH]
- agonist efficacy / potency in Gi/o signaling assay [25]: retains its efficacy as an agonist

SMILES: COc1ccsc1CNCC[C@@]1(c2ccccn2)CCOC2(CCCC2)C1 [TRV130, reference compound]
- respiration frequency / respiratory depression [26]: significantly depresses respiration at 15 minutes
- conditioned place preference [12]: not significant relative to vehicle
- κOR agonist activity [14]: activates KOR with similar potency to morphine
- β-arrestin2 recruitment in the absence of GRK2 [4]: no β-arrestin2 recruitment
- arrestin recruitment with over-expressed GRK2 [6]: we observe arrestin recruitment

SMILES: CCN1CCC[C@@H](NC(=O)NCCc2ccc(OC(C)C)cc2)C1 [compound 6]
- Ki [27]: 10000 nM

SMILES: O=C(Cc1cn2ccccc2n1)NCC1(c2ccccc2)CCC1 [compound 9]
- μOR binding, given as <50% [28]: <50%

SMILES: CN(Cc1nnc(C2CC2)n1C)C(=O)NC[C@@H](Cc1ccccc1)N(C)C [compound 10]
- κOR binding, given as <50% [29]: <50%

SMILES: CN(C)[C@@H](CNC(=O)NC[C@@H](O)c1cnn(C)c1)Cc1ccccc1 [compound 11]
- κOR binding, given as <50% [29]: <50%

SMILES: C[C@H](Cc1ccsc1)NC(=O)NC[C@@H](Cc1ccccc1)N(C)C [compound 12]
- Emax ([9]; read-out: Arrestin recruitment (PathHunter) Emax (%) μOR): 9.4%
- Emax ([24]; read-out: Gi/o (Glosensor) Emax (%) nociceptin): 43%
- Emax ([7]; read-out: Gi/o (Glosensor) Emax (%) μOR): 88%

SMILES: Cc1nc(CNC(=O)NC[C@@H](Cc2ccccc2)N(C)C)sc1C [compound 15]
- κOR binding, given as <50% [29]: <50%
